# Measurements from patent publication US7381521B2, “Anti-pathogenic composition useful in blood preservation” (Altachem Pharma Ltd., priority 2001, dated 2008).
# Legend:
# S. aureus ATCC 6538 = assay: Test 2 (DGHM), growth inhibition by dilutions, 72 hours at 37° C.; type: cell-based, Staphylococcus aureus
# Procedure: Another test was carried out a basis of the following solutions • 100 ml of a 0.1% solution of chlorohexidine digluconate (pH 6); and • 100 ml of a 0.1% solution of Bardac22®.
# The activity of these solutions, alone or in combination, was more particularly tested in respect of Staphylococcus aureus ATCC 6538, Escherichia coli ATCC 11229 and Candida albicans ATCC 10231.
# The tests were conducted in accordance with the procedure described in Chapter I/2.1 and 2.2 of Tichtlinien für die Prüfung und Bewertung chemischer Desinfektionsverfahren der DGHM/Guidelines for Testing and Evaluating Chemical Disinfection Processes of DGHM as at 1.1, 1981.
# Tables IX, X and XI respectively illustrate the bactericidal and fungicidal activity of a 0.1% aqueous solution of chlorohexidine digluconate, a 0.1% aqueous solution of Bardac22® and a mixture of equal parts of both compounds. The procedures of which these Tables illustrate the results comprise incubation of 72 hours at 37° C. and the use of the following inactivating substances as controls: • A: 3% Tween®80+0.3% lecithin+0.1% cysteine • B: 3% Tween®80+3% saponin+0.1% cysteine+0.1% histidine; • C: 3% Tween®80+0.3% lecithin+0.1% histidine+0.5% sodium thiosulphate.
# In these Tables, the sign “+” indicates an increase and the sign “−” denotes the absence of growth.
# HIV-1 virus = assay: Infectivity of HIV-1 treated 10 minutes with product for normal human T lymphocytes (reverse transcriptase activity, ATI, in culture supernatants); type: cell-based
# From the text: Infectivity is studied on T lymphocytes obtained from peripheral blood of a healthy human donor and separated on a Ficoll gradient.
# The lymphocytes are stimulated for 3 days by phytohaemaglutinin P (PHA P) diluted to 1/500 and cultivated in a complete medium. The blastic cells T are infected by the virus, treated or not, in order to show up residual infectious strength.
# The viruses obtained from a supernatant culture of an HIV-1 infected CEM line. This T lymphoblastoid line infected by HIV-1 is used for viral production.
# The titer of the supernatant substances used is evaluated after quantitative analysis of the reverse transcriptase activity (ATI) of the virus.
# In the following tests, a supernatant substance was used, the ATI of which was 1.8×10^6 cpm/ml.
# Preparation of the viral solution: several tubes containing 1 ml viral supernatant, ATI 1.8×10^6 cmp/ml are, concentrated by ultracentrifugation. The resulting virus residues are taken up either by each of the different dilutions of QACs produced in sterile bidistilled water or by water (untreated control virus).
# Treatment of viral preparations: the concentrated viral preparations are all treated according to the following procedure:
# Treated virus samples: the virus residues concentrated by ultracentrifugation are resuspended in 100, μl of each of the concentrations in terms of products (QACs) studied and incubated for 10 minutes.
# Control viral sample: untreated control virus: the product is replaced by 100 μl of sterile bidistilled water.
# Following this 10 minute incubation time, the virus present in each sample is rinsed and then reconcentrated by addition of 12 ml of RPMI 1640 medium and ultracentrifugation. The virus residues are then taken up in 1 ml of complete medium and used for infecting normal human T lymphocytes.
# Measurement of the infectivity of the samples: 4×10^6 normal human T lymphocytes are infected with each of the treated viral preparations or controls mentioned hereinabove. Infection of the T cells is carried out according to a previously described method (F. Barre Sinoussi et al. Science, 1983, 220:868-871): to sum up, 4×10^6 cells in suspension in 1 ml of complete medium are incubated with 1 ml of each of the treated vial preparations or controls for 1 hour at 37° C.
# After two washings using several millilitres of culture medium, the cellular suspensions are adjusted to the concentration of 1×10^6 cells per ml. The day of the infection is regarded as day 0.
# Viral production during the course of time is determined by measuring the reverse transcriptase activity present in the culture supernatants using the procedure described below.
# This quantitative analysis makes it possible to evaluate the presence of noninactivated residual virus in the staring sample. It is carried out on a basis of 1 ml of culture supernatant taken every 2 or 3 days and ultracentrifuged.
# The enzymatic activities are measured in 50 μl of a reaction mixture containing 50 mM Tris pH 7.8, 20 mM MgCl2, 20 mM KCl, 2 mM dithiotreitol, 0.25 OD/ml, oligo dT, 0.25 OD/ml poly rA, 0.1% Triton×100 and 2.5 μCi 3H DTTP.
# After incubation for 1 hour at 37° C., the reaction is stopped by the addition of 10 μl of 0.2 M EDTA and the samples are deposited on DE81 membranes.
# After several washings using 5% Na2HPO4, then by distilled water, the membranes are dried and the radioactivity measured by means of a p scintillation counter (PACKARD).
# [1] = 0.00625% vol/vol, inactivator A
# [2] = 0.00625% vol/vol, inactivator B
# [3] = 0.00625% vol/vol, inactivator C
# [4] = 0.00625% vol/vol, no inactivator
# [5] = 0.0125% vol/vol, no inactivator
smiles,measurement,setting,value
"CCCCCCCCCC[N+](C)(C)CCCCCCCCCC.[Cl-] [Bardac ®, didecyl dimethyl ammonium chloride]",concentration of active substance inhibiting growth,S. aureus ATCC 6538,0.0001%
same,dilution of the 0.1% solution inhibiting growth,S. aureus ATCC 6538,0.1%
same,growth,S. aureus ATCC 6538; [1],+
same,growth,S. aureus ATCC 6538; [2],+
same,growth,S. aureus ATCC 6538; [3],+
same,growth,S. aureus ATCC 6538; [4],+
same,growth,"S. aureus ATCC 6538; 0.0125% vol/vol, inactivator A",+
same,growth,"S. aureus ATCC 6538; 0.0125% vol/vol, inactivator B",+
same,growth,"S. aureus ATCC 6538; 0.0125% vol/vol, inactivator C",+
same,growth,S. aureus ATCC 6538; [5],+
same,growth,"S. aureus ATCC 6538; 0.025% vol/vol, inactivator A",+
same,growth,"S. aureus ATCC 6538; 0.025% vol/vol, inactivator B",+
same,growth,"S. aureus ATCC 6538; 0.025% vol/vol, inactivator C",+
same,growth,"S. aureus ATCC 6538; 0.025% vol/vol, no inactivator",+
same,growth,"S. aureus ATCC 6538; 0.05% vol/vol, inactivator A",+
same,growth,"S. aureus ATCC 6538; 0.05% vol/vol, inactivator B",+
same,growth,"S. aureus ATCC 6538; 0.05% vol/vol, inactivator C",+
same,growth,"S. aureus ATCC 6538; 0.05% vol/vol, no inactivator",+
same,growth,"S. aureus ATCC 6538; 0.1% vol/vol, inactivator A",+
same,growth,"S. aureus ATCC 6538; 0.1% vol/vol, inactivator B",+
same,growth,"S. aureus ATCC 6538; 0.1% vol/vol, inactivator C",+
same,growth,"S. aureus ATCC 6538; 0.1% vol/vol, no inactivator",−
same,growth,"S. aureus ATCC 6538; 0.5% vol/vol, inactivator A",+
same,growth,"S. aureus ATCC 6538; 0.5% vol/vol, inactivator B",+
same,growth,"S. aureus ATCC 6538; 0.5% vol/vol, inactivator C",+
same,growth,"S. aureus ATCC 6538; 0.5% vol/vol, no inactivator",−
same,growth,"S. aureus ATCC 6538; 1.0% vol/vol, inactivator A",+
same,growth,"S. aureus ATCC 6538; 1.0% vol/vol, inactivator B",+
same,growth,"S. aureus ATCC 6538; 1.0% vol/vol, inactivator C",+
same,growth,"S. aureus ATCC 6538; 1.0% vol/vol, no inactivator",−
same,ATI in supernatant,"HIV-1 virus; Bardac 0.0004%, J3",702 cpm/ml
same,ATI in supernatant,"HIV-1 virus; Bardac 0.0004%, J6",18136 cpm/ml
same,ATI in supernatant,"HIV-1 virus; Bardac 0.0004%, J10",117326 cpm/ml
same,ATI in supernatant,"HIV-1 virus; Bardac 0.0004%, J13",74214 cpm/ml
same,ATI in supernatant,"HIV-1 virus; Bardac 0.0004%, J17",50674 cpm/ml
same,ATI in supernatant,"HIV-1 virus; Bardac 0.0004%, J20",22478 cpm/ml
same,ATI in supernatant,"HIV-1 virus; Bardac 0.0004%, J23",13806 cpm/ml
same,ATI in supernatant,"HIV-1 virus; Bardac 0.0004%, J27",7800 cpm/ml
same,ATI in supernatant,"HIV-1 virus; Bardac 0.0004%, J30",4426 cpm/ml
same,ATI in supernatant,"HIV-1 virus; Bardac 0.002%, J3",464 cpm/ml
same,ATI in supernatant,"HIV-1 virus; Bardac 0.002%, J6",2472 cpm/ml
same,ATI in supernatant,"HIV-1 virus; Bardac 0.002%, J10",16066 cpm/ml
same,ATI in supernatant,"HIV-1 virus; Bardac 0.002%, J13",24902 cpm/ml
same,ATI in supernatant,"HIV-1 virus; Bardac 0.002%, J17",77754 cpm/ml
same,ATI in supernatant,"HIV-1 virus; Bardac 0.002%, J20",75554 cpm/ml
same,ATI in supernatant,"HIV-1 virus; Bardac 0.002%, J23",101394 cpm/ml
same,ATI in supernatant,"HIV-1 virus; Bardac 0.002%, J27",80560 cpm/ml
same,ATI in supernatant,"HIV-1 virus; Bardac 0.002%, J30",64692 cpm/ml
same,ATI in supernatant,"HIV-1 virus; Bardac 0.004%, J3",346 cpm/ml
same,ATI in supernatant,"HIV-1 virus; Bardac 0.004%, J6",298 cpm/ml
same,ATI in supernatant,"HIV-1 virus; Bardac 0.004%, J10",160 cpm/ml
same,ATI in supernatant,"HIV-1 virus; Bardac 0.004%, J13",170 cpm/ml
same,ATI in supernatant,"HIV-1 virus; Bardac 0.004%, J17",350 cpm/ml
same,ATI in supernatant,"HIV-1 virus; Bardac 0.004%, J20",218 cpm/ml
same,ATI in supernatant,"HIV-1 virus; Bardac 0.004%, J23",444 cpm/ml
same,ATI in supernatant,"HIV-1 virus; Bardac 0.004%, J27",244 cpm/ml
same,ATI in supernatant,"HIV-1 virus; Bardac 0.004%, J30",264 cpm/ml
same,ATI in supernatant,"HIV-1 virus; Bardac 0.006%, J3",320 cpm/ml
same,ATI in supernatant,"HIV-1 virus; Bardac 0.006%, J6",326 cpm/ml
same,ATI in supernatant,"HIV-1 virus; Bardac 0.006%, J10",204 cpm/ml
same,ATI in supernatant,"HIV-1 virus; Bardac 0.006%, J13",248 cpm/ml
same,ATI in supernatant,"HIV-1 virus; Bardac 0.006%, J17",364 cpm/ml
same,ATI in supernatant,"HIV-1 virus; Bardac 0.006%, J20",180 cpm/ml
same,ATI in supernatant,"HIV-1 virus; Bardac 0.006%, J23",328 cpm/ml
same,ATI in supernatant,"HIV-1 virus; Bardac 0.006%, J27",588 cpm/ml
same,ATI in supernatant,"HIV-1 virus; Bardac 0.006%, J30",196 cpm/ml
same,ATI in supernatant,"HIV-1 virus; Bardac 0.01%, J3",334 cpm/ml
same,ATI in supernatant,"HIV-1 virus; Bardac 0.01%, J6",222 cpm/ml
same,ATI in supernatant,"HIV-1 virus; Bardac 0.01%, J10",1768 cpm/ml
same,ATI in supernatant,"HIV-1 virus; Bardac 0.01%, J13",1592 cpm/ml
same,ATI in supernatant,"HIV-1 virus; Bardac 0.01%, J17",190 cpm/ml
same,ATI in supernatant,"HIV-1 virus; Bardac 0.01%, J20",390 cpm/ml
same,ATI in supernatant,"HIV-1 virus; Bardac 0.01%, J23",1328 cpm/ml
same,ATI in supernatant,"HIV-1 virus; Bardac 0.01%, J27",780 cpm/ml
same,ATI in supernatant,"HIV-1 virus; Bardac 0.01%, J30",1000 cpm/ml
"[H]/N=C(\N/C(=N/[H])NCCCCCCNC(=N)NC(=N)Nc1ccc(Cl)cc1)Nc1ccc(Cl)cc1 [Chlorhexidine, chlorohexidine digluconate, reference compound]",concentration of active substance inhibiting growth,S. aureus ATCC 6538,0.0005%
same,dilution of the 0.1% solution inhibiting growth,S. aureus ATCC 6538,0.5%
same,growth,S. aureus ATCC 6538; [1],+
same,growth,S. aureus ATCC 6538; [2],+
same,growth,S. aureus ATCC 6538; [3],+
same,growth,S. aureus ATCC 6538; [4],+
same,growth,"S. aureus ATCC 6538; 0.0125% vol/vol, inactivator A",+
same,growth,"S. aureus ATCC 6538; 0.0125% vol/vol, inactivator B",+
same,growth,"S. aureus ATCC 6538; 0.0125% vol/vol, inactivator C",+
same,growth,S. aureus ATCC 6538; [5],+
same,growth,"S. aureus ATCC 6538; 0.025% vol/vol, inactivator A",+
same,growth,"S. aureus ATCC 6538; 0.025% vol/vol, inactivator B",+
same,growth,"S. aureus ATCC 6538; 0.025% vol/vol, inactivator C",+
same,growth,"S. aureus ATCC 6538; 0.025% vol/vol, no inactivator",+
same,growth,"S. aureus ATCC 6538; 0.05% vol/vol, inactivator A",+
same,growth,"S. aureus ATCC 6538; 0.05% vol/vol, inactivator B",+
same,growth,"S. aureus ATCC 6538; 0.05% vol/vol, inactivator C",+
same,growth,"S. aureus ATCC 6538; 0.05% vol/vol, no inactivator",+
same,growth,"S. aureus ATCC 6538; 0.1% vol/vol, inactivator A",+
same,growth,"S. aureus ATCC 6538; 0.1% vol/vol, inactivator B",+
same,growth,"S. aureus ATCC 6538; 0.1% vol/vol, inactivator C",+
same,growth,"S. aureus ATCC 6538; 0.1% vol/vol, no inactivator",+
same,growth,"S. aureus ATCC 6538; 0.5% vol/vol, inactivator A",+
same,growth,"S. aureus ATCC 6538; 0.5% vol/vol, inactivator B",+
same,growth,"S. aureus ATCC 6538; 0.5% vol/vol, inactivator C",+
same,growth,"S. aureus ATCC 6538; 0.5% vol/vol, no inactivator",−
same,growth,"S. aureus ATCC 6538; 1.0% vol/vol, inactivator A",+
same,growth,"S. aureus ATCC 6538; 1.0% vol/vol, inactivator B",+
same,growth,"S. aureus ATCC 6538; 1.0% vol/vol, inactivator C",+
same,growth,"S. aureus ATCC 6538; 1.0% vol/vol, no inactivator",−
same,ATI in supernatant,"HIV-1 virus; Chlorhexidine 0.005%, J3",360 cpm/ml
same,ATI in supernatant,"HIV-1 virus; Chlorhexidine 0.005%, J10",580 cpm/ml
same,ATI in supernatant,"HIV-1 virus; Chlorhexidine 0.005%, J30",720 cpm/ml
same,ATI in supernatant,"HIV-1 virus; Chlorhexidine 0.01%, J10",200 cpm/ml
same,ATI in supernatant,"HIV-1 virus; Chlorhexidine 0.01%, J13",250 cpm/ml
same,ATI in supernatant,"HIV-1 virus; Chlorhexidine 0.01%, J17",230 cpm/ml
same,ATI in supernatant,"HIV-1 virus; Chlorhexidine 0.01%, J27",420 cpm/ml
